{"source": "patent US7250389B1", "about": "“Antifungal compound and process for producing the same” (Meiji Seika Kaisha, Ltd., priority 1998, dated 2007)", "key": {"[1]": {"tested_on": "cucumber anthracnose fungi (Colletotricum lagenarium)", "test": "Confirmation test on persistence of the effect of protecting cucumber against anthracnose", "type": "in vivo", "conditions": "for Protective value, Plot 2: inoculation on the day subsequent to holding under fluorescent lamp; for Protective value, Plot 3: inoculation on the day subsequent to holding under sunlight; for Protective value, Plot 1: inoculation on the same day as application", "excerpt": "Cucumber seedlings (variety: Suyo) of first leaf development stage raised in each of plastic pots containing compost were provided. […] The agent was air dried. On the same day or 24 hr after the air drying, a conidial suspension of cucumber anthracnose fungi (Colletotricum lagenarium), which had been previously cultured in a potato soup agar medium, was evenly inoculated by spraying. […] Experimental Plots: Plot 1: Plot subjected to inoculation on the same day as application: Inoculation was carried out on the same day as the air drying, and the pots were allowed to stand under moist chamber conditions at 26° C. for 24 hr and then allowed to stand for 7 days in an environment control room kept at 18° C. at night and at 25° C. in the daytime. Plot 2: Plot subjected to inoculation on the day subsequent to holding under fluorescent lamp: After the air drying, the pots were placed in an environment control room under an indoor fluorescent lamp (the control room being kept at 18° C. at night and at 25° C. in the daytime with the fluorescent lamp being turned on for 8 hr in the daytime). 24 hr after the application of the agent, inoculation was carried out. Thereafter, the pots were allowed to stand under moist chamber conditions at 26° C. for 24 hr and then allowed to stand for 7 days in an environment control room kept at 18° C. at night and at 25° C. in the daytime. Plot 3: Plot subjected to inoculation on the day subsequent to holding under sunlight: After the air drying, the pots were placed outdoors under sunlight in the daytime (8 hr) and then allowed to stand in an environment control room kept at 18° C. 24 hr after the application of the agent, inoculation was carried out. Thereafter, the pots were allowed to stand under moist chamber conditions at 26° C. for 24 hr and then allowed to stand for 7 days in an environment control room kept at […] at night and at 25° C. in the daytime."}, "blast (rice seedlings)": {"tested_on": "blast (rice seedlings)", "test": "Photostability test (effect of protecting rice seedlings against blast, outdoors)", "type": "in vivo", "conditions": "200 ppm, 100 mL per m^2; outdoor rice seedlings; lesion area 19 days after application", "excerpt": "Rice seedlings of three-leaf stage (variety: Koshihikari) raised outdoors in an upland field bed (1 m×1 m) for rice seedlings were covered with a vinyl tunnel, only at night, with ears of rice suffering from blast being suspended (height 40 cm) to infect rice seedlings with blast. After the incipient infection was confirmed, agent solutions having an agent concentration of 200 ppm prepared by varying the agent concentration by the method as described in Test Example 2 each were applied in an amount of 100 mL per m^2 by means of a sprayer. For one week after the application of the agent, the rice seedlings were covered with the vinyl tunnel at night to promote the infection. 19 days after the application of the agent, the lesion area of the leaf was measured, and the protective value was calculated by the following equation.\nProtective value=(1−average lesion area of treated plot)/lesion area of untreated plot)×100"}, "[2]": {"test": "Photostability test (percentage residue as determined by HPLC)", "type": "physicochemical", "conditions": "thin film", "method": "In consideration of use in agricultural chemicals, the following test was carried out to obtain data on photostability against exposure to sunlight. Date and Time of Test: First: 5 hr from 12:00 to 17:00 on May 26, 1997 Second: 6 hr from 10:00 to 16:00 on May 28, 1997 Place: For both tests, Odawara-shi, Kanagawa Weather: For both tests, fine […] Acetone was shortly evaporated. As a result, each sample was brought into a white thin film. The films thus obtained were exposed to sunlight. After the completion of exposure to sunlight, the residual amount of UK-2A and the residual amount of the compound of Example 18 were quantitatively determined by HPLC (column: YMC-PACKODS-AS-56.0×150 mm (A-312)), mobile phase: acetonitrile-water=70 : 30 (v/v), detection wavelength: 254 nm)."}, "[3]": {"tested_on": "rice blast fungi (Pyricularia oryzae)", "type": "in vivo"}, "[4]": {"tested_on": "cucumber downy mildew (pathogenic fungi: Peseudoperonocpora cubensis)", "test": "Test on effect of protecting cucumber against downy mildew", "type": "in vivo", "conditions": "200 ppm spray; cucumber seedlings; seven days after inoculation", "method": "Cucumber seedlings (variety: Suyo) of first leaf development stage raised in each of plastic pots containing compost were provided. […] The agent was air dried. Thereafter, a conidial suspension, which had been previously prepared by scraping lesion portions on the undersurface of cucumber suffering from cucumber downy mildew (pathogenic fungi: […] cubensis), was evenly inoculated by spraying. The pots were then kept under moist chamber conditions at 20° C. for 24 hr to perform infection. Thereafter, they were transferred to an environment control room kept at 18° C. at night and at 22° C. in the daytime to induce the disease."}, "[5]": {"tested_on": "cucumber anthracnose fungi (Colletotricum lagenarium)", "type": "in vivo", "conditions": "200 ppm spray; cucumber seedlings; seven days after inoculation"}}, "note": "Like-named read-outs stand apart in the source and are kept apart here."}
{"smiles": "COc1ccnc(C(=O)N[C@H]2COC(=O)[C@H](Cc3ccccc3)[C@@H](OC(=O)C(C)C)[C@H](C)OC2=O)c1O", "note": "[UK-2A, reference compound]", "values": [{"measurement": "Protective value, Plot 2", "setting": "[1]; 10 ppm", "result": 93}, {"measurement": "Protective value, Plot 3", "setting": "[1]; 10 ppm", "result": 27}, {"measurement": "Protective value, Plot 1", "setting": "[1]; 10 ppm", "result": 80}, {"measurement": "Protective value, Plot 2", "setting": "[1]; 30 ppm", "result": 100}, {"measurement": "Protective value, Plot 3", "setting": "[1]; 30 ppm", "result": 60}, {"measurement": "Protective value, Plot 1", "setting": "[1]; 30 ppm", "result": 100}, {"measurement": "Protective value", "setting": "blast (rice seedlings)", "result": 63}, {"measurement": "Residual amount after exposure to sunlight", "setting": "[2]; First test: 5 hr sunlight", "result": 33, "unit": "%"}, {"measurement": "Residual amount after exposure to sunlight", "setting": "[2]; Second test: 6 hr sunlight", "result": 64, "unit": "%"}]}
{"smiles": "CC(C)C(=O)O[C@H]1[C@H](C)OC(=O)[C@@H](NC(=O)c2cccc(O)n2)COC(=O)[C@@H]1Cc1ccccc1", "note": "[Ex. 5, (2R,3R,4S,7S)-7-(6-Hydroxypicolinylamino)-2-benzyl-5,9-dioxa-3-isobutyryloxy-4-methyl-1,6-cyclononanedione]", "values": [{"measurement": "Protective value", "setting": "[3]; in vivo", "result": 90}, {"measurement": "Protective value", "setting": "[4]", "result": 100}]}
{"smiles": "COc1ccnc(C(=O)N[C@H]2COC(=O)[C@H](Cc3ccccc3)[C@@H](OC(=O)C(C)C)[C@H](C)OC2=O)c1OC(C)=O", "note": "[Ex. 18, (2R,3R,4S,7S)-7-(3-Acetoxy-4-methoxypicolinylamino)-2-benzyl-5,9-dioxa-3-isobutyryloxy-4-methyl-1,6-cyclo-nonanedione]", "values": [{"measurement": "Protective value, Plot 2", "setting": "[1]; 10 ppm", "result": 93}, {"measurement": "Protective value, Plot 3", "setting": "[1]; 10 ppm", "result": 60}, {"measurement": "Protective value, Plot 1", "setting": "[1]; 10 ppm", "result": 67}, {"measurement": "Protective value, Plot 2", "setting": "[1]; 30 ppm", "result": 93}, {"measurement": "Protective value, Plot 3", "setting": "[1]; 30 ppm", "result": 80}, {"measurement": "Protective value, Plot 1", "setting": "[1]; 30 ppm", "result": 67}, {"measurement": "Protective value, Plot 2", "setting": "[1]; 100 ppm", "result": 93}, {"measurement": "Protective value, Plot 3", "setting": "[1]; 100 ppm", "result": 93}, {"measurement": "Protective value, Plot 1", "setting": "[1]; 100 ppm", "result": 87}, {"measurement": "residual effect under sunlight compared with UK-2A", "setting": "[1]; plot 3", "result": "much superior to UK-2A"}, {"measurement": "difference in protective value between UK-2A and the compound of Example 18", "setting": "[1]; plots 1 and 2", "result": "no significant difference"}, {"measurement": "Protective value", "setting": "blast (rice seedlings)", "result": 95}, {"measurement": "Residual amount after exposure to sunlight", "setting": "[2]; First test: 5 hr sunlight", "result": 98, "unit": "%"}, {"measurement": "Residual amount after exposure to sunlight", "setting": "[2]; Second test: 6 hr sunlight", "result": 93, "unit": "%"}]}
{"smiles": "COc1cccc(C(=O)N[C@H]2COC(=O)[C@H](Cc3ccccc3)[C@@H](OC(=O)C(C)C)[C@H](C)OC2=O)c1O", "note": "[Ex. 38, (2R,3R,4S,7S)-7-(3-Methoxysalicylamino)-2-benzyl-5,9-dioxa-3-isobutyryloxy-4-methyl-1,6-cyclononanedione]", "values": [{"measurement": "Protective value", "setting": "[3]; in vivo", "result": 83}]}
{"smiles": "CC(C)C(=O)O[C@H]1[C@H](C)OC(=O)[C@@H](NC(=O)c2nc3ccccc3nc2O)COC(=O)[C@@H]1Cc1ccccc1", "note": "[Ex. 8, (2R,3R,4S,7S)-7-(3-Hydroxy-2-quinoxalinecarboxylamino)-2-benzyl-5,9-dioxa-3-isobutyryloxy-4-methyl-1,6-cyclononanedione]", "values": [{"measurement": "Protective value", "setting": "[3]; in vivo", "result": 100}, {"measurement": "Protective value", "setting": "[5]", "result": 100}]}
{"smiles": "CC(C)C(=O)O[C@H]1[C@H](C)OC(=O)[C@@H](NC(=O)c2cccc([N+](=O)[O-])c2O)COC(=O)[C@@H]1Cc1ccccc1", "note": "[Ex. 40, (2R,3R,4S,7S)-7-(3-Nitrosalicyl)amino-2-benzyl-5,9-dioxa-3-isobutyryloxy-4-methyl-1,6-cyclononanedione]", "values": [{"measurement": "Protective value", "setting": "[4]", "result": 100}]}
{"smiles": "CCCCCCC1C(=O)OC(C)C(NC(=O)c2cccc(NC=O)c2O)C(=O)OC(C)C1OC(=O)CC(C)C", "note": "(stereo not drawn) [Antimycin A, reference compound]", "values": [{"measurement": "Protective value", "setting": "[3]; 100 ppm spray, rice seedlings, lesions counted seven days after inoculation", "result": 83}, {"measurement": "Protective value", "setting": "[5]", "result": 17}]}
{"smiles": "CC(C)C(=O)O[C@H]1[C@H](C)OC(=O)[C@@H](NC(=O)c2cc(Cl)ccc2O)COC(=O)[C@@H]1Cc1ccccc1", "note": "[Ex. 46, (2R,3R,4S,7S)-7-(5-Chlorosalicyl)amino-2-benzyl-5,9-dioxa-3-isobutyryloxy-4-methyl-1,6-cyclononanedione]", "values": [{"measurement": "Protective value", "setting": "[5]", "result": 100}]}
{"smiles": "CC(C)C(=O)O[C@H]1[C@H](C)OC(=O)[C@@H](NC(=O)c2cccc(N)c2O)COC(=O)[C@@H]1Cc1ccccc1", "note": "[Ex. 41, (2R,3R,4S,7S)-7-(3-Aminosalicyl)amino-2-benzyl-5,9-dioxa-3-isobutyryloxy-4-methyl-1,6-cyclononanedione]", "values": [{"measurement": "Protective value", "setting": "[3]; in vivo", "result": 86}, {"measurement": "Protective value", "setting": "[5]", "result": 100}, {"measurement": "Protective value", "setting": "[4]", "result": 88}]}
{"smiles": "CC(C)C(=O)O[C@H]1[C@H](C)OC(=O)[C@@H](NC(=O)c2cc(NC=O)ccc2O)COC(=O)[C@@H]1Cc1ccccc1", "note": "[Ex. 52, (2R,3R,4S,7S)-7-(5-Formylaminosalicyl)amino-2-benzyl-5,9-dioxa-3-isobutyryloxy-4-methyl-1,6-cyclononanedione]", "values": [{"measurement": "Protective value", "setting": "[4]", "result": 100}]}
{"smiles": "CC(C)C(=O)O[C@H]1[C@H](C)OC(=O)[C@@H](NC(=O)c2ccccc2O)COC(=O)[C@@H]1Cc1ccccc1", "note": "[Ex. 39, (2R,3R,4S,7S)-7-Salicylamino-2-benzyl-5,9-dioxa-3-isobutyryloxy-4-methyl-1,6-cyclononanedione]", "values": [{"measurement": "Protective value", "setting": "[3]; in vivo", "result": 98}]}
{"smiles": "CC(C)C(=O)O[C@H]1[C@H](C)OC(=O)[C@@H](NC(=O)c2cccnc2O)COC(=O)[C@@H]1Cc1ccccc1", "note": "[Ex. 4, (2R,3R,4S,7S)-7-(2-Hydroxynicotinylamino)-2-benzyl-5,9-dioxa-3-isobutyryloxy-4-methyl-1,6-cyclononanedione]", "values": [{"measurement": "Protective value", "setting": "[3]; in vivo", "result": 86}, {"measurement": "Protective value", "setting": "[4]", "result": 78}]}
